Measurements taken from patent US8207204B2, “Triazole derivatives as SCD inhibitors” (GlaxoSmithKline LLC, priority 2007, dated 2012).

| melting point [°C] | SMILES |
| --- | --- |
| 283 | Cc1nc(NC(=O)c2cn(Cc3ccc(Cl)c(Cl)c3)nn2)sc1C(N)=O [Example 37, N-[5-(Aminocarbonyl)-4-methyl-1,3-thiazol-2-yl]-1-[(3,4-dichlorophenyl)methyl]-1H-1,2,3-triazole-4-carboxamide] |
| 215.6 | Cc1c(C(=O)Nc2nncs2)nnn1Cc1ccc(Cl)c(Cl)c1 [Example 38, 1-[(3,4-Dichlorophenyl)methyl]-5-methyl-N-1,3,4-thiadiazol-2-yl-1H-1,2,3-triazole-4-carboxamide] |
| 170.5 | Cc1c(C(=O)Nc2ncc(CO)s2)nnn1Cc1ccc(Cl)c(Cl)c1 [Example 39, 1-[(3,4-Dichlorophenyl)methyl]-N-[5-(hydroxymethyl)-1,3-thiazol-2-yl]-5-methyl-1H-1,2,3-triazole-4-carboxamide] |
| 205 | COCc1c(C(=O)Nc2ncc(CO)s2)nnn1Cc1ccc(Cl)c(Cl)c1 [Example 40, 1-[(3,4-Dichlorophenyl)methyl]-N-[5-(hydroxymethyl)-1,3-thiazol-2-yl]-5-[(methyloxy)methyl]-1H-1,2,3-triazole-4-carboxamide] |
| 161.8 | Cc1nc(NC(=O)c2nnn(Cc3ccc(Cl)c(Cl)c3)c2C)sc1CO [Example 41, 1-[(3,4-Dichlorophenyl)methyl]-N-[5-(hydroxymethyl)-4-methyl-1,3-thiazol-2-yl]-5-methyl-1H-1,2,3-triazole-4-carboxamide] |
| 153.6 | Cc1c(C(=O)Nc2nnc(CO)s2)nnn1Cc1ccc(Cl)c(Cl)c1 [Example 42, 1-[(3,4-Dichlorophenyl)methyl]-N-[5-(hydroxymethyl)-1,3,4-thiadiazol-2-yl]-5-methyl-1H-1,2,3-triazole-4-carboxamide] |
| 191 | Cc1c(C(=O)Nc2cc(CO)ccn2)nnn1Cc1ccc(Cl)c(Cl)c1 [Example 44, 1-[(3,4-Dichlorophenyl)methyl]-N-[4-(hydroxymethyl)-2-pyridinyl]-5-methyl-1H-1,2,3-triazole-4-carboxamide] |
| 176 | COc1ccc2nc(C(=O)Nc3nnn(Cc4ccc(Cl)c(Cl)c4)c3C)sc2c1 [Example 45, N-{1-[(3,4-Dichlorophenyl)methyl]-5-methyl-1H-1,2,3-triazol-4-yl}-6-(methyloxy)-1,3-benzothiazole-2-carboxamide] |
